Experiment [1] in a line: Inhibition of GABA receptor-induced currents in Rattus norvegicus (rat) dorsal ganglion neuron.
Experiment [2] is described as follows: Displacement of [3H]EBOB from GABA receptor in Rattus norvegicus (rat) membrane after 70 min by liquid scintillation counting. The format is cell membranes.
In another experiment the target is T1, GABA receptor subunit (Musca domestica, UniProt Q75NA5).
T1 sequence (Q75NA5 whole entry): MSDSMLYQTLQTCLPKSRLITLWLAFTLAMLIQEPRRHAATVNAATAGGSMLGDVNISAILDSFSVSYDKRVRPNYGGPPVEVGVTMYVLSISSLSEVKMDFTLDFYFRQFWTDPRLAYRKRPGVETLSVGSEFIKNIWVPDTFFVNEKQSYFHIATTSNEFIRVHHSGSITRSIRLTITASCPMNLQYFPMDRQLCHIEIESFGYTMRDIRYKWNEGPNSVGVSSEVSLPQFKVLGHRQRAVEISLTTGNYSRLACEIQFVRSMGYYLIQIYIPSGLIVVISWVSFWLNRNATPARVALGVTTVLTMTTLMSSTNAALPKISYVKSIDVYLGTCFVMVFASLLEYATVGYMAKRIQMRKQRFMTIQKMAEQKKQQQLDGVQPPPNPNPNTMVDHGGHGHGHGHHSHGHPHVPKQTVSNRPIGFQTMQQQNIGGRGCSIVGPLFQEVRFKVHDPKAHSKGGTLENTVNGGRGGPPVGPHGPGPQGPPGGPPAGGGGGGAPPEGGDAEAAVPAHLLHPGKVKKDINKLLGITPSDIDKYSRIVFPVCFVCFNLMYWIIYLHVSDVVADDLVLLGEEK
In words: Displacement of [3H]EBOB from GABA receptor in Musca domestica (house fly) head P2 membrane after 70 min by liquid scintillation counting. Background: Displacement assays read how much labelled ligand stays bound in the presence of the test substance.

For experiment [3], the target named is T2, GABA receptor subunit (Musca domestica) (UniProt Q75NA5).
T2 sequence (whole entry): T1 sequence (Q75NA5 whole entry)
The experiment can be described thus: Displacement of [3H]EBOB from GABA receptor in Musca domestica (house fly) head P2 membrane at 2.2 uM after 70 min by liquid scintillation counting.

The term IC50 denotes the midpoint of a concentration-inhibition curve. Read a high IC50 as weaker potency in that assay. Turning to `CC(C)(C)CCOC(=O)c1ccc(C#CCCC(=O)O)cc1`, the IC50 in experiment [1] was 540 nM; in experiment [2] it was 3410 nM; at GABA receptor subunit, 88 nM.
The inhibition is the drop in the measured response relative to a control, in per cent. Low values mean little suppression, high ones strong suppression. In the case of `COc1cc(O)c2c(c1C)C(C)C(O)(COC(=O)c1ccc(O)c(CC=C(C)C)c1)OC2=O` (stereo unspecified) [DIHYDROISOCOUMARIN], the IC50 in experiment [2] is 3410 nM; at GABA receptor subunit, 88 nM. In experiment [3], this molecule gave an inhibition of 65%.
